Measured values as given in paper PMC7127208 (Bioorganic & Medicinal Chemistry, 2013).

Key:
Feline herpes virus = experiment: Antiviral screening, Feline herpes virus in CRFK cells; type: cell-based; details: read-out: EC50 Feline herpes virus
Parainfluenza 3-virus = experiment: Antiviral screening, Parainfluenza 3-virus in MDCK cells; type: cell-based; details: read-out: EC50 Parainfluenza 3-virus
Reovirus-1 = experiment: Antiviral screening, Reovirus-1 in MDCK cells; type: cell-based; details: read-out: EC50 Reovirus-1
[1] = test system: CEM, HeL, CRFK, HeLa, MDCK cells; details: above mentioned cell lines
FIV = experiment: Anti-FIV activity in CrFK cells; type: cell-based, feline immunodeficiency virus
HSV-1 = experiment: Antiviral activity against HSV-1; type: cell-based
HSV-2 = experiment: Antiviral activity against HSV-2; type: cell-based
Feline herpesvirus = experiment: Antiviral activity against Feline herpesvirus; type: cell-based
VV = experiment: Antiviral activity against VV; type: cell-based
HCMV = experiment: Antiviral activity against HCMV; type: cell-based
[2] = test system: FIV (feline immunodeficiency virus); details: cited from earlier work

Structure (SMILES)	EC50 (Feline herpes virus)	EC50 (Parainfluenza 3-virus)	EC50 (Reovirus-1)	MCC, minimum cytotoxicity concentration required to cause a microscopically detectable alteration of normal cell morphology [1]	also measured
C[C@@H](O)CNc1nc(N)nc2c1ncn2C[C@@H](C)O [compound 4, (R)-1-{2-Amino-6-[((R)-2-hydroxypropyl)amino]-9H-purin-9-yl}propan-2-ol]	> 100 µg/mL	> 100 µg/mL	> 100 µg/mL	> 100 μg/mL	
CCCCCCCCCCCCCCCCOCCCOP(=O)([O-])CO[C@H](C)Cn1cnc2c(N)nc(N)nc21.[Na+] [compound 14, Hexadecyloxypropyl ester of (R)-9-[2-(phosphonomethoxy)propyl]-2,6-diaminopurine, sodium salt]					fold more potent in inhibiting FIV replication compared to the parent molecule (FIV; in vitro, versus (R)-PMPDAP): 200 fold; activity against HSV-1 (HSV-1): No activity; activity against HSV-2 (HSV-2): No activity; activity against Feline herpesvirus (Feline herpesvirus): No activity; activity against VV (VV): No activity; activity against HCMV (HCMV): No activity
CCOC(=O)[C@H](C)NP(=O)(CO[C@H](C)Cn1cnc2c(N)nc(N)nc21)N[C@@H](C)C(=O)OCC [compound 15]					fold less active against FIV compared to the parent molecule (FIV): 10 fold
C[C@@H](O)CNc1nc(N)c2ncn(C[C@@H](C)O)c2n1 [compound 3, (R)-1-{6-Amino-2-[(R)-2-(hydroxypropyl)amino]-9H-purin-9-yl}propan-2-ol]	> 100 µg/mL	> 100 µg/mL	> 100 µg/mL	> 100 μg/mL	
C[C@H](Cn1cnc2c(NCP(=O)(O)O)nc(N)nc21)OCP(=O)(O)O [compound 10, (R)-9-[2-(Phosphonomethoxy)propyl]-N^6-phosphonomethyl-2,6-diaminopurine]	> 100 µg/mL	> 100 µg/mL	> 100 µg/mL	> 100 μg/mL	
C[C@H](Cn1cnc2c(N)nc(N)nc21)OCP(=O)(O)O [compound 12, (R)-9-[2-(phosphonomethoxy)propyl]-2,6-diaminopurine]					inhibition of FIV infections in cats [2]: very potent inhibitor
